Measurements from US20090035270A1, “COMBINATION THERAPY USING ANTI-ANGIOGENIC AGENTS AND TNF alpha” (priority 2001, published 2009).

Key:
α5β1 = target: T1, α5β1 (Homo sapiens, UniProt P05556+P08648); assay: Cell detachment assay, HUVEC on fibronectin; assay type: cell-based; details: graded peptide concentrations; 2 hours
T1 construct: HUVEC adhere to immobilized fibronectin via αVβ3 and α5β1 integrins; endogenous in cells; host or cells: HUVEC (primary, passages 3 to 7)
Description: (§1) Maxisorp II ELISA plates were coated with 1 μg/well of fibrobnectin or 0.5% gelatin overnight at 4° C. in PBS. Coated wells were rinsed and blocked with 1% BSA for 2 hours at 37° C. and rinsed before use. 2×10^4 c/well in basal medium without FCS were added and briefly sedimented by centrifugation (40×g). Cells were let adhere for 2 hours at 37° C. before peptides were added at graded concentrations. After 2 hours, wells were rinsed with warm PBS, and attached cells were fixed in 2% paraformaldehyde, stained with 0.5% crystal violet (Sigma Chemie) and quantified by O.D. reading at 620 nm (Packard Spectra Count). Results are given as O.D. values and represent the mean of duplicate wells ±s.d. of specific adhesion (= adhesion on ECM protein minus adhesion on BSA).

HUVEC [1] = assay type: cell-based
Description: To determine the effect of spheroid culture on cell viability, spheroids and fibronectin-adherent HUVEC were recovered between 6 and 72 hours after plating, serially diluted and further cultured for an additional 48 hours before relative cell number was determined. A shift-to-the left or a flattening of the dilution curve indicates decreased viability.
To test whether integrins modulate TNF-induced apoptosis, we cultured HUVEC on fibronectin (integrin-dependent adhesion) or as spheroids (integrin-independent adhesion) in the absence or presence of TNF (200 ng/ml) and of IFNγ (330 ng/ml), an enhancer of TNF cytotoxicity (Dealtry et al., Eur. J. Immunol. 17, 689-693 (1987)). […] To examine the effect of TNF±IFNγ on cell survival we determined the viability of untreated and treated cultures. […]
For survival, HUVEC spheroids plated at 1×10^6 cells/ml in 1% BSA-coated 24 mm wells, or adherent cells plated at 4×10^5 cells in 3 μg/ml fibronectin-coated 35 mm wells of non-tissue culture plates (Evergreen Scientific), were stimulated with TNFα (200 ng/ml=10^4 U/ml)±IFNγ (330 ng/ml=10^4 U/ml). […] Relative cell number was assessed 48 hours later by measuring MTT conversion during the last 4 hours of culture. […]

integrin αVβ3 = target: T2, integrin αVβ3 (Homo sapiens, UniProt P05106+P06756); assay: Cell detachment assay, HUVEC on gelatin; assay type: cell-based; details: graded peptide concentrations; 2 hours
T2 construct: EMD121974 disrupted αVβ3-mediated HUVEC adhesion on gelatin; endogenous in cells; host or cells: HUVEC (primary, passages 3 to 7)
Description: as §1

HUVEC [2] = assay: Detection of apoptotic HUVEC in culture (YoPro-1 staining); assay type: cell-based, human; details: peptide 300 μM; TNF 200 ng/ml; IFNγ 330 ng/ml
Description: To test whether integrins modulate TNF-induced apoptosis, we cultured HUVEC on fibronectin (integrin-dependent adhesion) or as spheroids (integrin-independent adhesion) in the absence or presence of TNF (200 ng/ml) and of IFNγ (330 ng/ml), an enhancer of TNF cytotoxicity (Dealtry et al., Eur. J. Immunol. 17, 689-693 (1987)). […] In contrast, spheroids treated with TNF±IFNγ increased uptake of YoPro-1 (an increase suppressed by caspase inhibitors BOC, Z-VAD, IETD and DVED), DNA fragmentation, caspase-3 activation and cleavage of PARP (FIG. 2a, 2b and data not shown). To examine the effect of TNF±IFNγ on cell survival we determined the viability of untreated and treated cultures. […] Treatment with IFNγ alone was not cytotoxic (data not shown). HUVEC adhere to immobilized fibronectin via αVβ3 and α5β1 integrins (Rüegg et al., Nature Med. 4, 408-414 (1998)). To test for the individual contribution of these integrins to cell survival on fibronectin, we cultured HUVEC on plastic-immobilized mAbs (imAbs) directed against αVβ3, α1, α5 and α4 integrins.
For morphological evaluation, spheroids were embedded in Epon (Fluka Chemie) and thick sections were stained with 1% Methylene/Azur blue. For immunostaining, frozen spheroid sections were fixed in 4% (Fluka Chemis, Buchs, Switzerland) formaldehyde. After blocking with 1% BSA, sections were sequentially incubated for 1 hour with primary mAb (20 μg/ml) and a Cyan3-labeled GaM antiserum (West Grove, Pa., USA). For the TUNEL reaction, frozen spheroids sections were fixed in 4% paraformaledhyde and processed as described (Ruegg et al., I.e.). Spherouids were countsrstained with propidium iodide for total DNA content. […] The apoptosis index was determined by calculating the ratio between the green (TUNEL staining of fragmented DNA) and red (propidium iodide staining by total DNA) pixels. Number of analyzed spheroids per condition were: C, 31; T, 21; TI, 12. […] Cultures were viewed by inverted fluorescence microscopy (Leica DM IRB, Heerbrugg, Switzerland). […]

BN175 tumor cells = assay: Sensitivity of BN175 tumor cells in vitro; assay type: cell-based, rat; details: unpublished observation
[3] = tested on: BN-175 syngeneic soft tissue sarcoma; assay: Isolated limb perfusion (ILP) of BN rats bearing BN-175 soft tissue sarcoma; assay type: in vivo; details: ILP 30 min; EMD121974 500 μg (plus 100 mg/kg i.p.); TNF 50 μg; 6 days after ILP
Description: FIG. 7. Decreased integrin ligation enhances TNF cytotoxicity in in vivo. BN rats bearing the BN-175 syngeneic soft tissue sarcoma were treated with EMD121974 (□), TNF (Δ) or EMD121974/TNF (▪) by ILP technique. (◯) sham-treated rats. Tumor growth was measured for 6 days after ILP. Results represent the mean tumor volume ±s.e.m. (n=6). Small fragments of the syngeneic soft tissue sarcoma BN-175 were implanted in the right hind limb of male BN rats, and treatment started when diameter reached 12-14 mm (Manusama et al., Oncol Rep. 6, 173-177. (1999)). The femoral artery and vein were canulated with silastic tubing and collaterals occluded with a tourniquet. The perfusion was performed for 30 min with 5 ml Heamaccel® (2.4 ml/min) in which the drugs were added as boluses (EMD121974, 500 μg, end concentration in perfusate 170 μM; TNF, 50 μg). The perfusate was oxygenated and the leg kept on 38-39° C. with a warm mattress. Rats perfused with EMD121974 also received systemic administration of the peptide 2 hours before and 3 hours after ILP (100 mg/kg i.p.). Tumor diameter was measured in two directions by caliper measurements and tumor volume (V) was calculated (V= 0.4)(A^2×B, where B represents the largest diameter and A the diameter perpendicular to B). 6 rats were treated per group. Local and systemic side effects were evaluated as described (Manusama et al., Oncol. Rep. 6, 173-177. (1999)). […]

T2 sequence (P06756 31-889 limits assumed): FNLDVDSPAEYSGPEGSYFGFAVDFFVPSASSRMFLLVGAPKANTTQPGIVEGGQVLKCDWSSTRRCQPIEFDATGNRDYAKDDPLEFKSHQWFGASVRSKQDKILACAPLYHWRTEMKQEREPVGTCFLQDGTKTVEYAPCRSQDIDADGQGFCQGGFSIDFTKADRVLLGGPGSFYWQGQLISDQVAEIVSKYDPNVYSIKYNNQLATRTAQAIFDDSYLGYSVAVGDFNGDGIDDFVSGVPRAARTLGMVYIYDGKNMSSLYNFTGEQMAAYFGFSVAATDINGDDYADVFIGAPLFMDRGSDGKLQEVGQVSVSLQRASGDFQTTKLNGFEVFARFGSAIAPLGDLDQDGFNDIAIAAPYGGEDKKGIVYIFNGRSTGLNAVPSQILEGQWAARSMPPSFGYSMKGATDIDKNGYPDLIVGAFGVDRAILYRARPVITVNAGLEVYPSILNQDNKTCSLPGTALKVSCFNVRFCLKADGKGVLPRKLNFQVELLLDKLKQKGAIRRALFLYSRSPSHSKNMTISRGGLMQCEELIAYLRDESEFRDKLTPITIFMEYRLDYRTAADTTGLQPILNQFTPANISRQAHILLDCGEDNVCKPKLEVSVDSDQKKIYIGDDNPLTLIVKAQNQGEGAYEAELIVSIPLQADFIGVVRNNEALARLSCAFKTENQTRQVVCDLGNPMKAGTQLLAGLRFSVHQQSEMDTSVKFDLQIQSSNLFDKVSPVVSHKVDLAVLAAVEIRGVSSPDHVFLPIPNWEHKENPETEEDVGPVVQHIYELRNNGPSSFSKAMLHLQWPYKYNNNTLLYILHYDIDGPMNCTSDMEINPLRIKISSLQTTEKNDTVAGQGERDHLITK
T2 sequence (P06756 891-1048 partner limits assumed): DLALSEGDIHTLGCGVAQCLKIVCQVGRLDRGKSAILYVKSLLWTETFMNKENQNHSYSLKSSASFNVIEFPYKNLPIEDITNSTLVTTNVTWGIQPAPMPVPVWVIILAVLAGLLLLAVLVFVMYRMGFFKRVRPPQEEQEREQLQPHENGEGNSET
T2 sequence (P05106 27-788): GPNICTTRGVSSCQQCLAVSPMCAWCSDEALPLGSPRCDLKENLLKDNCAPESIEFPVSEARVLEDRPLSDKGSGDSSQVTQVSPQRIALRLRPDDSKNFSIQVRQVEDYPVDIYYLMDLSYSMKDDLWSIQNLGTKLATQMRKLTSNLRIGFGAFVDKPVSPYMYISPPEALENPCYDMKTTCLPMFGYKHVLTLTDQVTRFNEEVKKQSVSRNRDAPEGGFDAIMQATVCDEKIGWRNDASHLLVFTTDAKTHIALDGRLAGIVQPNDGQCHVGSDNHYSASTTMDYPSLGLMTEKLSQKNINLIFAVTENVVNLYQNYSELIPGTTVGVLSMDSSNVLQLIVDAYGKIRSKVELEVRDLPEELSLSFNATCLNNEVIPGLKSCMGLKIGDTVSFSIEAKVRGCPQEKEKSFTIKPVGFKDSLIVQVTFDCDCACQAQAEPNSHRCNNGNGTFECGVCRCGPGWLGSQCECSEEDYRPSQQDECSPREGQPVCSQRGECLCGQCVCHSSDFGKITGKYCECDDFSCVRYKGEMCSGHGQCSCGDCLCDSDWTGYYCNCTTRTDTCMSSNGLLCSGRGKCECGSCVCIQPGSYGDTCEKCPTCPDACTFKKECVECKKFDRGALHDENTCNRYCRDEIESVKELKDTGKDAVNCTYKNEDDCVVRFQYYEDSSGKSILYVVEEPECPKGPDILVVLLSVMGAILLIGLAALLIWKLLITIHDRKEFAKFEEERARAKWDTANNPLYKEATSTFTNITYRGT
T1 sequence (P08648 42-894 limits assumed): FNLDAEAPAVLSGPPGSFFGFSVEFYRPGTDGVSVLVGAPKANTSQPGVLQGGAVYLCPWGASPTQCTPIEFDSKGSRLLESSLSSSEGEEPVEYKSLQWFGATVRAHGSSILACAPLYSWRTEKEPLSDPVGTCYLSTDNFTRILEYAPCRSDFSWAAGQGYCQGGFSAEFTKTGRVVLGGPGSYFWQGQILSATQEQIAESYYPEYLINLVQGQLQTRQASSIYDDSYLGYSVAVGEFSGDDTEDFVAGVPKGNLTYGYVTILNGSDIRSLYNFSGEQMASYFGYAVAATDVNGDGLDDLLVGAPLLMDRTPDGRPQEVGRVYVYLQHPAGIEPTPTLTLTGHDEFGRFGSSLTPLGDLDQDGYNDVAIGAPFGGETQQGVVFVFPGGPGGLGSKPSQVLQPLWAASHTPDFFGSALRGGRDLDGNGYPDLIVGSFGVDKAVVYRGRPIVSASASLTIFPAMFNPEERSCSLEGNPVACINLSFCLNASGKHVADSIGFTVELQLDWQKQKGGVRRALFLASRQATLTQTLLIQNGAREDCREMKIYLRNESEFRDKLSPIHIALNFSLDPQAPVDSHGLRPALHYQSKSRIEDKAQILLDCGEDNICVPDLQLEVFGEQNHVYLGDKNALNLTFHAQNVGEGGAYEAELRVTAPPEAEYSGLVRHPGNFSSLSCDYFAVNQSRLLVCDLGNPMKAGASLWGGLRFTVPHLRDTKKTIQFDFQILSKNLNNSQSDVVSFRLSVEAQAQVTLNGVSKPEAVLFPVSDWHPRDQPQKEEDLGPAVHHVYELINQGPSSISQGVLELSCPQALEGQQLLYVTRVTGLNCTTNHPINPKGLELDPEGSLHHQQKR
T1 sequence (P08648 895-1049 partner limits assumed): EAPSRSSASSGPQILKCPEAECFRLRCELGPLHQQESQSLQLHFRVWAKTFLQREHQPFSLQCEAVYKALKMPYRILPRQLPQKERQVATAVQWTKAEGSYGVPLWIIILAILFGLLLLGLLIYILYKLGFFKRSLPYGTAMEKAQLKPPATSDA
T1 sequence (P05556 21-798): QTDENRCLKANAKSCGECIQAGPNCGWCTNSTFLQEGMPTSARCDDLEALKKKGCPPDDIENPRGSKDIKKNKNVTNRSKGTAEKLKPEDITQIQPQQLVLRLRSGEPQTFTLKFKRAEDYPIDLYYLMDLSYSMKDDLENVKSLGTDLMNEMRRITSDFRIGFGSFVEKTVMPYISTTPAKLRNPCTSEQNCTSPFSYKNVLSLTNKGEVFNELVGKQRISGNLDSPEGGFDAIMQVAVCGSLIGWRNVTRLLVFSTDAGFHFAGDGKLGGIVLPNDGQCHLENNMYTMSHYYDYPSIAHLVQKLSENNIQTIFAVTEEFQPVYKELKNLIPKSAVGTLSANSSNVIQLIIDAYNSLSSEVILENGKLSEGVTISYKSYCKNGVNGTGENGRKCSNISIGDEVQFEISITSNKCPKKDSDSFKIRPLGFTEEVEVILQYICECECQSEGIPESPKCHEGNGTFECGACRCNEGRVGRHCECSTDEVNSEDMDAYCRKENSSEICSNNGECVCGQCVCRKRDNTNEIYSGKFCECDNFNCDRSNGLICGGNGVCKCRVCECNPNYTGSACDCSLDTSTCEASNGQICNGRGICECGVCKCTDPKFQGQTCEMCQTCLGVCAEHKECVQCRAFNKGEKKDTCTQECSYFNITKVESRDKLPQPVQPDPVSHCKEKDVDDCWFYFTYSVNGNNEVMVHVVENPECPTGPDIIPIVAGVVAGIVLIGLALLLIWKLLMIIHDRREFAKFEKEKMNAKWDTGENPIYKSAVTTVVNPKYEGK

Compound: CC(C)[C@H]1C(=O)N[C@@H](CCCN=C(N)N)C(=O)NCC(=O)N[C@@H](CC(=O)O)C(=O)N[C@H](Cc2ccccc2)C(=O)N1C [EMD121974, cyclo-(Arg-Gly-Asp-DPhe-NMeVal)]
- α5β1 component of the α5β1/αVβ3-mediated adhesion to fibronectin (α5β1): does not affect
- cell viability / survival of fibronectin-adherent HUVEC, agent alone (HUVEC [1]; fibronectin-adherent, TNF 200 ng/ml ± IFNγ 330 ng/ml, EMD peptide 300 μM): neither TNF/IFNγ nor EMD121974 alone affected survival
- survival of HUVEC on fibronectin, combined exposure to TNF/IFNγ and peptide (HUVEC [1]; peptide 300 μM, TNF 200 ng/ml, IFNγ 330 ng/ml): reduced survival
- αVβ3-mediated HUVEC adhesion on gelatin (integrin αVβ3): disrupted
- apoptosis and detachment of HUVEC on fibronectin, combined exposure to TNF/IFNγ and peptide (HUVEC [2]): increased apoptosis and detachment
- sensitivity of BN175 tumor cells to αVβ3 selective inhibitors (BN175 tumor cells): low sensitivity
- tumor growth [3]: no impact on tumor growth
